The values below come from US20060165823A1, “Topical delivery agents and methods for making and using therm” (priority 2003, published 2006).

In the series the test system is hair follicles and sebaceous glands of the dorsal skin. The series is described as follows: Delivery of Nile Red fluorescent dye into hair follicles and sebaceous glands by delivery agents. Details: species or system Sprague Dawley rat; Fluorescence intensity: key to the marks not given beside the values. The following applies: rat, in vivo. From the text:
Mixtures of Nile Red fluorescent dye, were from Sigma Chemical Co., St. […] All mixtures were filtered through a 0.2 micron Millipore filter, available from Millipore Corp., Bedford, Mass., to remove any undissolved Nile Red dye. […] Before the application of formulations, the hair of the rats was gently clipped with an electric clipper on their dorsal areas. […] The amount of Nile Red delivered is evidenced by the intensity of the orange-red fluorescence depicted in the photomicrographs. […] Orange-red fluorescence due to Nile Red dye on the skin surface (stratum corneum) was not evaluated.

For the molecule Jojoba Oil, the Fluorescence intensity entry is “++++”; the “Penetration of the skin and distribution in the pilosebaceous unit” value was “can penetrate the skin through the opening of the hair follicle and distribute itself throughout the hair shaft and sebaceous gland”.
Turning to `C[S+](C)[O-]` [DMSO, Dimethyl Sulfoxide, reference compound], the Fluorescence intensity entry was “+++”.
